Experimental data: patent publication US9006265B2, “Substituted fused pyrimidinones and dihydropyrimidinones” (Bayer Intellectual Property GmbH, priority 2010, dated 2015)

Assays:
ZEAMX [1] = assay: Drought stress test on crop plants in greenhouse, spray application; assay type: in vivo, Zea mays; conditions: efficacy = percentage reduction in intensity of damage, mean of three results
Description: (§1) Seeds of monocotyledonous and dicotyledonous crop plants were laid out in sandy loam in wood-fiber pots, covered with soil and cultivated in a greenhouse under good growth conditions. The test plants were treated at the early leaf stage (BBCH10-BBCH13). To ensure uniform water supply before commencement of stress, the potted plants were supplied with the maximum amount of water immediately beforehand by dam irrigation and, after application, transferred in plastic inserts in order to prevent subsequent, excessively rapid drying. The inventive compounds, formulated in the form of wettable powders (WP), wettable granules (WG), suspension concentrates (SC) or emulsion concentrates (EC), were sprayed onto the green parts of the plants as an aqueous suspension at an equivalent water application rate of 600 l/ha with addition of 0.2% wetting agent (agrotin). Substance application is followed immediately by stress treatment of the plants (cold or drought stress). For cold stress treatment, the plants were kept under the following controlled conditions: • “day”: 12 hours with illumination at 8° C. • “night”: 12 hours without illumination at 1° C.
(§2) Drought stress was induced by gradual drying out under the following conditions: • “day”: 14 hours with illumination at 26° C. • “night”: 10 hours without illumination at 18° C.
(§3) The duration of the respective stress phases was guided mainly by the state of the untreated (=treated with blank formulation without test compound), stressed control plants and thus varied from crop to crop. It was ended (by re-irrigating or transfer to a greenhouse with good growth conditions) as soon as irreversible damage was observed on the untreated, stressed control plants. In the case of dicotyledonous crops, for example oilseed rape and soybeans, the duration of the drought stress phase varied between 3 and 5 days, in the case of monocotyledonous crops, for example wheat, barley or corn, between 6 and 10 days. The duration of the cold stress phase varied between 12 and 14 days.
(§4) The end of the stress phase was followed by an approx. 5-7-day recovery phase, during which the plants were once again kept under good growth conditions in a greenhouse. In order to rule out any influence of the effects observed by any fungicidal action of the test compounds, it was additionally ensured that the tests proceeded without fungal infection and without infection pressure.
(§5) After the recovery phase had ended, the intensities of damage were rated in visual comparison to untreated, unstressed controls of the same age (in the case of drought stress) or the same growth stage (in the case of cold stress). The intensity of damage was first assessed as a percentage (100%=plants have died, 0%=like control plants). These values were then used to calculate the efficacy of the test compounds (=percentage reduction in the intensity of damage as a result of substance application) by the following formula:
(§6) [formula] EF: efficacy (%) DVus: damage value of the untreated, stressed control DVts: damage value of the plants treated with test compound
(§7) The tables A-1 and B-1 to B-4 below list mean values in each case from three results of the same test.
(§8) Efficacies of selected compounds of the formula (I) under drought stress using the examples of HORVS, BRSNS, ZEAMX und TRZAS: […]

ZEAMX [2] = assay: Cold stress test on crop plants in greenhouse, spray application; assay type: in vivo, Zea mays; conditions: efficacy = percentage reduction in intensity of damage, mean of three results
Description: Seeds of monocotyledonous and dicotyledonous crop plants were laid out in sandy loam in wood-fiber pots, covered with soil and cultivated in a greenhouse under good growth conditions. The test plants were treated at the early leaf stage (BBCH10-BBCH13). To ensure uniform water supply before commencement of stress, the potted plants were supplied with the maximum amount of water immediately beforehand by dam irrigation and, after application, transferred in plastic inserts in order to prevent subsequent, excessively rapid drying. The inventive compounds, formulated in the form of wettable powders (WP), wettable granules (WG), suspension concentrates (SC) or emulsion concentrates (EC), were sprayed onto the green parts of the plants as an aqueous suspension at an equivalent water application rate of 600 l/ha with addition of 0.2% wetting agent (agrotin). Substance application is followed immediately by stress treatment of the plants (cold or drought stress). For cold stress treatment, the plants were kept under the following controlled conditions: • “day”: 12 hours with illumination at 8° C. • “night”: 12 hours without illumination at 1° C. The duration of the respective stress phases was guided mainly by the state of the untreated (=treated with blank formulation without test compound), stressed control plants and thus varied from crop to crop. It was ended (by re-irrigating or transfer to a greenhouse with good growth conditions) as soon as irreversible damage was observed on the untreated, stressed control plants. In the case of dicotyledonous crops, for example oilseed rape and soybeans, the duration of the drought stress phase varied between 3 and 5 days, in the case of monocotyledonous crops, for example wheat, barley or corn, between 6 and 10 days. The duration of the cold stress phase varied between 12 and 14 days. The end of the stress phase was followed by an approx. 5-7-day recovery phase, during which the plants were once again kept under good growth conditions in a greenhouse. In order to rule out any influence of the effects observed by any fungicidal action of the test compounds, it was additionally ensured that the tests proceeded without fungal infection and without infection pressure. After the recovery phase had ended, the intensities of damage were rated in visual comparison to untreated, unstressed controls of the same age (in the case of drought stress) or the same growth stage (in the case of cold stress). The intensity of damage was first assessed as a percentage (100%=plants have died, 0%=like control plants). These values were then used to calculate the efficacy of the test compounds (=percentage reduction in the intensity of damage as a result of substance application) by the following formula: [formula] EF: efficacy (%) DVus: damage value of the untreated, stressed control DVts: damage value of the plants treated with test compound The tables A-1 and B-1 to B-4 below list mean values in each case from three results of the same test. Efficacies of selected compounds of the formula (I) under cold stress using the example of ZEAMX: […]

BRSNS = assay: Drought stress test on crop plants in greenhouse, spray application; assay type: in vivo, Brassica napes; conditions: efficacy = percentage reduction in intensity of damage, mean of three results
Description: as §1, §2, §3, §4, §5, §6, §7, §8

TRZAS = assay: as above; assay type: in vivo, Triticum aestivum; conditions: efficacy = percentage reduction in intensity of damage, mean of three results
Description: as §1, §2, §3, §4, §5, §6, §7, §8

HORVS = assay: as above; assay type: in vivo, Hordeum vulgare; conditions: dosage 500 g/ha, efficacy = percentage reduction in intensity of damage, mean of three results
Description: Seeds of monocotyledonous and dicotyledonous crop plants were laid out in sandy loam in wood-fiber pots, covered with soil and cultivated in a greenhouse under good growth conditions. The test plants were treated at the early leaf stage (BBCH10-BBCH13). To ensure uniform water supply before commencement of stress, the potted plants were supplied with the maximum amount of water immediately beforehand by dam irrigation and, after application, transferred in plastic inserts in order to prevent subsequent, excessively rapid drying. The inventive compounds, formulated in the form of wettable powders (WP), wettable granules (WG), suspension concentrates (SC) or emulsion concentrates (EC), were sprayed onto the green parts of the plants as an aqueous suspension at an equivalent water application rate of 600 l/ha with addition of 0.2% wetting agent (agrotin). Substance application is followed immediately by stress treatment of the plants (cold or drought stress). […]
After the recovery phase had ended, the intensities of damage were rated in visual comparison to untreated, unstressed controls of the same age (in the case of drought stress) or the same growth stage (in the case of cold stress). The intensity of damage was first assessed as a percentage (100%=plants have died, 0%=like control plants). […]

## O=C1NC(c2ccc(Cl)cc2)Nc2cccc(F)c21 (centres unmarked) [I.4-165]
ZEAMX [1]; dosage 250 g/ha
  EF (ZEAMX): >5%

## COc1cc2nc(/C=C/c3cc(OC)c(O)c(OC)c3)[nH]c(=O)c2cc1OC [I.1-429]
ZEAMX [2]; dosage 250 g/ha
  EF (ZEAMX): >5%

## Cc1nc[nH]c1-c1nc2cc(Cl)ccc2c(=O)[nH]1 [I.1-139]
ZEAMX [1]; dosage 500 g/ha
  EF (ZEAMX): >5%

## Cc1cccc2c(=O)[nH]c(/C=C/c3cccnc3)nc12 [I.1-338]
BRSNS; dosage 100 g/ha
  EF (BRSNS): >5%
ZEAMX [1]; dosage 100 g/ha
  EF (ZEAMX): >5%
TRZAS; dosage 100 g/ha
  EF (TRZAS): >5%

## Cc1nc2c([N+](=O)[O-])cccc2c(=O)[nH]1 [I.1-32]
HORVS
  EF (HORVS): >5%

## O=C1NC(c2ccc(F)cc2F)Nc2c(Cl)cccc21 (centres unmarked) [I.4-175]
ZEAMX [1]; dosage 250 g/ha
  EF (ZEAMX): >5%

## Cc1ccc2c(=O)[nH]c(-c3ccc(Cl)cc3)nc2c1 [I.1-318]
ZEAMX [1]; dosage 250 g/ha
  EF (ZEAMX): >5%

## O=c1[nH]c(-c2ccc(Br)cc2)nc2c(Cl)cccc12 [I.1-204]
ZEAMX [2]; dosage 25 g/ha
  EF (ZEAMX): >5%

## CCN(CC)CCN1C(=O)c2cccc(OC)c2NC1c1ccc(C(F)(F)F)cc1Cl (centres unmarked) [I.4-324]
ZEAMX [1]; dosage 250 g/ha
  EF (ZEAMX): >5%

## CN1c2ccccc2C(=O)NC1c1cnn(C)c1 (centres unmarked) [I.4-63]
ZEAMX [2]; dosage 50 g/ha
  EF (ZEAMX): >5%

## Cc1cccc2c1NC(c1ccc(C(F)(F)F)cc1)NC2=O (centres unmarked) [I.4-21]
ZEAMX [1]; dosage 1000 g/ha
  EF (ZEAMX): >5%

## O=C1NC(c2ccsc2)Nc2c(Cl)cccc21 (centres unmarked) [I.4-181]
BRSNS; dosage 250 g/ha
  EF (BRSNS): >5%
ZEAMX [1]; dosage 250 g/ha
  EF (ZEAMX): >5%

## O=c1[nH]c2c(-c3ccc(Cl)cc3)c(C(F)(F)F)nn2c2ccccc12 [I.3-17, 3-(4-Chlorophenyl)-2-(trifluoromethyl)pyrazolo[1,5-a]quinazolin-5(4H)-one]
BRSNS; dosage 250 g/ha
  EF (BRSNS): >5%
ZEAMX [1]; dosage 250 g/ha
  EF (ZEAMX): >5%

## O=C1NC(c2ccc(Br)cc2F)Nc2cccc(F)c21 (centres unmarked) [I.4-227]
TRZAS; dosage 250 g/ha
  EF (TRZAS): >5%

## O=c1[nH]c(C2CCCC2)nc2c(O)cccc12 [I.1-148]
ZEAMX [1]; dosage 500 g/ha
  EF (ZEAMX): >5%

## Cc1ccc(-c2nc3ccccc3c(=O)[nH]2)o1 [I.1-44]
ZEAMX [1]; dosage 500 g/ha
  EF (ZEAMX): >5%

## CN1c2ccccc2C(=O)NC1c1ccoc1 (centres unmarked) [I.4-85]
ZEAMX [1]; dosage 250 g/ha
  EF (ZEAMX): >5%

## Cc1ccc(C2NC(=O)c3c(C)cccc3N2)cc1 (centres unmarked) [I.4-193]
TRZAS; dosage 250 g/ha
  EF (TRZAS): >5%

## O=C1NC(c2ccc(Cl)cc2)Nc2ccccc21 (centres unmarked) [I.4-71, 2-(4-Chlorophenyl)-2,3-dihydroquinazolin-4(1H)-one]
other
  melting point: 190 °C

## Cc1nn2c([nH]c(=O)c3ccccc32)c1-c1ccccc1 [I.3-1]
BRSNS; dosage 250 g/ha
  EF (BRSNS): >5%

## Cc1ccc(C2NC(=O)c3cccc(Cl)c3N2)c(Cl)c1 (centres unmarked) [I.4-295]
ZEAMX [1]; dosage 250 g/ha
  EF (ZEAMX): >5%

## CCCCCc1nc2c(OC)cccc2c(=O)[nH]1 [I.1-153]
BRSNS; dosage 500 g/ha
  EF (BRSNS): >5%
ZEAMX [1]; dosage 500 g/ha
  EF (ZEAMX): >5%

## O=c1[nH]c(-c2ccc(C#Cc3ccccc3F)o2)nc2cc(Cl)ccc12 [I.1-181]
BRSNS; dosage 250 g/ha
  EF (BRSNS): >5%

## Cn1cccc1-c1nc2cc(Cl)ccc2c(=O)[nH]1 [I.1-197]
ZEAMX [1]; dosage 250 g/ha
  EF (ZEAMX): >5%
TRZAS; dosage 250 g/ha
  EF (TRZAS): >5%

## COc1cc2nc(-c3cccc(C(F)(F)F)c3)[nH]c(=O)c2cc1OC [I.1-440]
ZEAMX [2]; dosage 25 g/ha
  EF (ZEAMX): >5%

## NC(=O)c1cnn2c1[nH]c(=O)c1ccccc12 [I.3-31]
ZEAMX [2]; dosage 250 g/ha
  EF (ZEAMX): >5%
BRSNS; dosage 25 g/ha
  EF (BRSNS): >5%
ZEAMX [1]; dosage 250 g/ha
  EF (ZEAMX): >5%
TRZAS; dosage 25 g/ha
  EF (TRZAS): >5%
